Activity calls are given as the source filed them.
Columns and labels:
[1] = test system: Vero; assay: host cell cytotoxicity of antiviral hits, dose response, cytotoxicity control for West Nile virus antiviral project, secondary assay (AID 1650); format: functional; conditions: Chlorocebus sabaeus
[2] = target: T1, ATP-dependent translocase ABCB1 (Homo sapiens, UniProt P08183); assay: ABCG2 efflux pump inhibitor potency, dose response, Ig-MXP3 cells, JC-1, flow cytometry, set 2 (AID 504566); format: functional; conditions: read-out: EC50_MICROM_;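 also: flow cytometry median green fluorescence of retained JC-1 dye; potency of efflux pump inhibition measured as rising substrate retention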
[3] = target: T2, Streptokinase A (Streptococcus pyogenes serotype M1, UniProt P10520); assay: S. pyogenes streptokinase expression inhibitors, potency, dose response, plasminogen activation absorbance, OD405 (AID 1914); format: functional, Streptococcus pyogenes M1 GAS;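 also: secreted streptokinase activity via plasminogen activation per viability signal from cell pellet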
T2 sequence (P10520 whole entry): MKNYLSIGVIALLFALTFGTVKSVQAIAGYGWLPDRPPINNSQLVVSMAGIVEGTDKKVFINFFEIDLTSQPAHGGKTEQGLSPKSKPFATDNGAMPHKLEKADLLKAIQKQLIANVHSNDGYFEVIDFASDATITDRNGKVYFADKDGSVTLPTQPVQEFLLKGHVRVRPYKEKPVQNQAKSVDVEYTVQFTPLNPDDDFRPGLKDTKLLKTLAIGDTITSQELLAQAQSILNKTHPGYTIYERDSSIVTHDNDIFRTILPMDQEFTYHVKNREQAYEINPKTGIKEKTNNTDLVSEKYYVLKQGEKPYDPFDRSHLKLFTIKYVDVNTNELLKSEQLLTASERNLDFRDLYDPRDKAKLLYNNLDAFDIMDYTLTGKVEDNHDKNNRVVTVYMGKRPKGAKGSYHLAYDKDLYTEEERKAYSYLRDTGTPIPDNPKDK

[4] = test system: Streptococcus; assay: Group A Streptococcus viability loss, dose response, counter-screen for streptokinase expression inhibitor project, luminescence, BacTiterGlo (AID 1915); format: functional, organism-based;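 also: potency for reduction of bacterial viability or growth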
[5] = test system: Streptococcus sp. 'group A'; assay: growth inhibition of control SK(-) GAS strain, dose response, counter-screen for streptokinase expression inhibitor project, luminescence, kanamycin, BacTiterGlo, confirmation (AID 1900); format: functional, organism-based
[6] = target: T1, ATP-dependent translocase ABCB1; assay: ABCB1 efflux inhibitor potency, dose response, Jurkat-DNR cells, JC-1, flow cytometry, set 2 (AID 504569); format: functional; conditions: read-out: EC50_MICROM_;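 also: potency of pump inhibitors that raise cellular JC-1 green fluorescence up to the nicardipine level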
[7] = target: T3, Nuclear receptor subfamily 0 group B member 1 (Homo sapiens, UniProt P51843); assay: Luminescence-based cell-based high throughput dose response assay for inhibitors of the orphan nuclear receptor subfamily 0, group B, member 1 (DAX1; NR0B1). [Related pubchem assays (depositor defined):AID504766, AID504790]; format: functional
T3 sequence (P51843 whole entry): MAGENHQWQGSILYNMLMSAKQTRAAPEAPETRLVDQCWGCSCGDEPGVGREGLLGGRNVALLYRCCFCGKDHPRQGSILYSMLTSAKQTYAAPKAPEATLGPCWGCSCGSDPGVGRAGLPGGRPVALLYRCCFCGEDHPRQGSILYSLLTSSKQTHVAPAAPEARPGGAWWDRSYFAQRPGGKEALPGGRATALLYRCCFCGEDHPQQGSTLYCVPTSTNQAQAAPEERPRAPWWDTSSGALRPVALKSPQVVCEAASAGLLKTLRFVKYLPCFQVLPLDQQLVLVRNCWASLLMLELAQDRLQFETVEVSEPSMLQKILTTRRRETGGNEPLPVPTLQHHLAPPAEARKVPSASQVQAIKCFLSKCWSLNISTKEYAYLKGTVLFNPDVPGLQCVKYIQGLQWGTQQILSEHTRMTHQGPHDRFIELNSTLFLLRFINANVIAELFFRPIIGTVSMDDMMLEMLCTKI

[8] = test system: HEK293; assay: cells; format: functional, cell-based; conditions: Homo sapiens
[9] = HEK293 cell cytotoxicity, dose response, cytotoxicity control, plate reader, cherry-picked samples (AID 743446); format: functional, cell-based
[10] = A549 cell cytotoxicity, dose response, cytotoxicity control, plate reader, cherry-pick, antagonist series (AID 743412); format: functional, cell-based
[11] = LGR2 antagonists, dose response, cell-based, HEK293, CRE-luciferase reporter, cherry pick, set 2 (AID 743343); format: functional;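 also: transfected cells were stimulated with diluted bursicon conditioned medium after compound addition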
[12] = test system: HEK293; assay: NOD2 signaling inhibitors in MDP-stimulated cells, cell-based, uHTS, luminescence (AID 2001); format: functional; conditions: Homo sapiens
[13] = test system: HEK293; assay: cells; format: functional, cell-based; conditions: Homo sapiens; remark: listed apart in the source
[14] = MC4R antagonists, dose response, counter-screen for LGR2 antagonist project, cell-based, plate reader, cherry pick (AID 743444); format: functional;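 also: transfected HEK 293 cells stimulated with alpha-MSH peptide; potency of inhibitors of the alpha-MSH evoked signal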
[15] = THP-1 cell cytotoxicity, dose response, cytotoxicity control for non-replicating M. tuberculosis project (AID 489025); format: functional
[16] = target: T4, Microphthalmia-associated transcription factor (Homo sapiens, UniProt O75030); assay: TRPM1 promoter luciferase signal decrease, dose response, MITF inhibitor project, cell-based, SK-MEL-5, cherry-picked, set 3 (AID 493073); format: functional
T4 sequence (O75030 whole entry): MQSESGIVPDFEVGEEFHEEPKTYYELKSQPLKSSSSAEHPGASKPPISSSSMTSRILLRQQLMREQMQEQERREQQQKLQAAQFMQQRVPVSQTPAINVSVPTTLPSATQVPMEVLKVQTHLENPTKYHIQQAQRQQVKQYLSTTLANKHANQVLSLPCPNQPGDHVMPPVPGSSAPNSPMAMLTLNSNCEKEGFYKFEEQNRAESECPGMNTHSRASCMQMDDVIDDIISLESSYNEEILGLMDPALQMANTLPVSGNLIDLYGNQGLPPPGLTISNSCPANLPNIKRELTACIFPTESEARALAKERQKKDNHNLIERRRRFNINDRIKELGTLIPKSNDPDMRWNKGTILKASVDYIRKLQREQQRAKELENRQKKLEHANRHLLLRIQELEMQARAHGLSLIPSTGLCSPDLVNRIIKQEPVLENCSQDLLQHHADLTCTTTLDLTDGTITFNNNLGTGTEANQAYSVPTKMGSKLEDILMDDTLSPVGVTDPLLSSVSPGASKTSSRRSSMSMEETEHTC

[17] = microbe, parasite or virus in culture; format: functional; conditions: Mycobacterium tuberculosis
[18] = test system: HEK293; assay: NOD1 signaling inhibitors, primary screen, cell-based, luminescence, uHTS (AID 1578); format: functional; conditions: Homo sapiens
[19] = test system: HEK293; assay: cells; format: functional, cell-based; conditions: Homo sapiens; remark: listed apart in the source
[20] = target: T5, Protein RecA (Mycobacterium tuberculosis, UniProt P9WHJ3); assay: Fluorescence Cell-Free Homogeneous Dose Retest to Identify Inhibitors of RecA-Intein Splicing Activity. [Related pubchem assays (depositor defined):AID2097, AID2223, AID489010, AID492950]; format: functional
T5 sequence (P9WHJ3 whole entry): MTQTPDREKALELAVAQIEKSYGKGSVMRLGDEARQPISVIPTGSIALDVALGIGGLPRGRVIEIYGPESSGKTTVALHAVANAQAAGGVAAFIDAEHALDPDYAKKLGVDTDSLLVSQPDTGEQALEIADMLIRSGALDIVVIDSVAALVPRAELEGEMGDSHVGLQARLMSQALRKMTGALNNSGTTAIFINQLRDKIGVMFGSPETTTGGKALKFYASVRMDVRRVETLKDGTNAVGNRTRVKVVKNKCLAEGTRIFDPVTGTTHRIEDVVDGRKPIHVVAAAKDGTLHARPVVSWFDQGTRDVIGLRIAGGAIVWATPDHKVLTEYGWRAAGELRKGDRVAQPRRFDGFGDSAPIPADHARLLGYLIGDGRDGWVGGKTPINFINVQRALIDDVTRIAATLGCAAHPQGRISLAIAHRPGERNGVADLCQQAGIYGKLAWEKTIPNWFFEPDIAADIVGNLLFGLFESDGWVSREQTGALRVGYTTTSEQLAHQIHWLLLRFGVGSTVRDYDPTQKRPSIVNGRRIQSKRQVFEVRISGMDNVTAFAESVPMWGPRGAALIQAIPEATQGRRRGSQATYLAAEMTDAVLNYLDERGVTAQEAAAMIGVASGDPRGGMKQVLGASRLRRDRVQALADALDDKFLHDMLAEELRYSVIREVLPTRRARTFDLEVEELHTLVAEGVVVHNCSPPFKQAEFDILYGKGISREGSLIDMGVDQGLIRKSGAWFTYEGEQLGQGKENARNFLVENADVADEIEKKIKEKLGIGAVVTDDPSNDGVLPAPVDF

[21] = target: T6, Replicative DNA helicase DnaB (Mycobacterium tuberculosis, UniProt P9WMR3); assay: DnaB intein splicing inhibitors, dose response, biochemical, cell-free fluorescence (AID 449749); format: functional
T6 sequence (P9WMR3 whole entry): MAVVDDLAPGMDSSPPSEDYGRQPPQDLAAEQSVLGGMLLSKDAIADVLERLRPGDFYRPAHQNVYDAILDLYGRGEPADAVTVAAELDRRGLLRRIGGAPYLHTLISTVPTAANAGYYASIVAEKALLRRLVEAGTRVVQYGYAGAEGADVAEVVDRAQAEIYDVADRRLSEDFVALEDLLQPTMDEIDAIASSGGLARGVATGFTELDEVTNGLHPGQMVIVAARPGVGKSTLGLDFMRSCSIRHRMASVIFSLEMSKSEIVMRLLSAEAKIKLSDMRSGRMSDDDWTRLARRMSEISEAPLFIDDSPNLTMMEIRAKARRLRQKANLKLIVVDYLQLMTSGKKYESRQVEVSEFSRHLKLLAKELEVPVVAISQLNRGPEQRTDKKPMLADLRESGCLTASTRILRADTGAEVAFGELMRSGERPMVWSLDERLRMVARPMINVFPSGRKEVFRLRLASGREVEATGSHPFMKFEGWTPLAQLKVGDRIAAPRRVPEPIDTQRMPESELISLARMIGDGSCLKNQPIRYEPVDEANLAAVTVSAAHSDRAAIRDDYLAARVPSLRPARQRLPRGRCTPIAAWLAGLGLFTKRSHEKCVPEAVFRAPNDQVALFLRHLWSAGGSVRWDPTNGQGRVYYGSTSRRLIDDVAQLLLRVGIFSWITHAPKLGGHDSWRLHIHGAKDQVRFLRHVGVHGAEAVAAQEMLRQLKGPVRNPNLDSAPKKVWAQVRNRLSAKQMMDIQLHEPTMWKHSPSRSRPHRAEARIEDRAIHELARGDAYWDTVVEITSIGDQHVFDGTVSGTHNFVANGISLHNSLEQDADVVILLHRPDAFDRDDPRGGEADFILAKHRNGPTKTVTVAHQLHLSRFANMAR

[22] = HepG2 cell cytotoxicity, dose response, cytotoxicity control, plate reader, cherry-pick, antagonist series (AID 743416); format: functional, cell-based
[23] = cells; format: functional
[24] = target: T7, Low molecular weight phosphotyrosine protein phosphatase (Homo sapiens, UniProt P24666); format: functional; conditions: read-out: IC50_Mean
T7 sequence (P24666 whole entry): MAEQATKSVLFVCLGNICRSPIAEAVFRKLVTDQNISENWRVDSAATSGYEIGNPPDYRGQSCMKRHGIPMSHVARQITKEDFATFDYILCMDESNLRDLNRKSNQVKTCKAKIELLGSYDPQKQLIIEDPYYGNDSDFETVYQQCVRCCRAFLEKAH

[25] = target: T7, Low molecular weight phosphotyrosine protein phosphatase; format: functional; conditions: read-out: IC50_Mean; remark: listed apart in the source

T1 sequence (P08183 whole entry): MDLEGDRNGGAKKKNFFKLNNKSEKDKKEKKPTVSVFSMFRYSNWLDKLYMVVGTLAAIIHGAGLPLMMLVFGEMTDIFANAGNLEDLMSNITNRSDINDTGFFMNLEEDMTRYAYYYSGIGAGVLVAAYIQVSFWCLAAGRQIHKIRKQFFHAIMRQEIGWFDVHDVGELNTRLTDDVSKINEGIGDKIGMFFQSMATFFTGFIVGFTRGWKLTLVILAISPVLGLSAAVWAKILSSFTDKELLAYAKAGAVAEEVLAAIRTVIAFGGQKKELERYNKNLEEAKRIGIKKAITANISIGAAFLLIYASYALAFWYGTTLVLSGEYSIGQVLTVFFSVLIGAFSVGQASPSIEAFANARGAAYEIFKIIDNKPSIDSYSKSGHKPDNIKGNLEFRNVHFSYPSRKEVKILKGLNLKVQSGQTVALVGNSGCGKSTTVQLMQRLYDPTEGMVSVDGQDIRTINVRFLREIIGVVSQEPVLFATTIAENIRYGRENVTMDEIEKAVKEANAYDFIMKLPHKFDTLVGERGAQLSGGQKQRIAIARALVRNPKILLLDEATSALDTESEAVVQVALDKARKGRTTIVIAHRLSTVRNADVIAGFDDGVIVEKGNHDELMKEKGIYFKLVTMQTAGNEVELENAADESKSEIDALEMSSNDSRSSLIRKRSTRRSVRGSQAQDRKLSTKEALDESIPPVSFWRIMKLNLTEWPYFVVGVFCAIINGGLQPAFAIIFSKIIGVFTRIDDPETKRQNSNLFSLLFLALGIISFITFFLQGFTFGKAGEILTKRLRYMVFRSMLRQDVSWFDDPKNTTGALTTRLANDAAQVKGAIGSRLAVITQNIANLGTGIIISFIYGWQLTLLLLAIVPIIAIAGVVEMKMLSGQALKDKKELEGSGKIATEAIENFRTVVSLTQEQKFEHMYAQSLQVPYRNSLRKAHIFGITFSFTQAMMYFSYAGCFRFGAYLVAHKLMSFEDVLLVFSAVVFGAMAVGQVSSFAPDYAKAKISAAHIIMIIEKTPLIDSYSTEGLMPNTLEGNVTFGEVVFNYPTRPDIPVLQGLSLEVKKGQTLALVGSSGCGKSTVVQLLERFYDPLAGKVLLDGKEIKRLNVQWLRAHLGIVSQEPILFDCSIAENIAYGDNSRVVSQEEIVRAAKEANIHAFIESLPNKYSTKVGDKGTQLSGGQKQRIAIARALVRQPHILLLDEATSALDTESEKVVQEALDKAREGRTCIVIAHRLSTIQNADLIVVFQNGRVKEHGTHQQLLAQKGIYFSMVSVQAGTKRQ

Structure (SMILES): Cc1nn2c(N3CCN(C(=O)c4ccco4)CC3)cc(C(C)(C)C)nc2c1-c1ccccc1
- CC50 [1]: 42.1 µM (active)
- EC50 [2]: 6.22 µM (active)
- EC50 [3]: 8.62 µM (active)
- EC50 [4]: 22.1 µM (active)
- EC50 [5]: 3.59 µM (active)
- EC50 [6]: 11.1 µM (active)

Structure (SMILES): CN(Cc1ccc(C(C)(C)C)cc1)C(=O)C1CCN(C(=O)Nc2ccccc2)CC1
- IC50 [7]: > 67.5 µM (inactive)
- IC50 [8]: > 67.5 µM (inactive)

Structure (SMILES): CC(=O)c1ccc(Sc2nnnn2-c2ccccc2)c([N+](=O)[O-])c1
- AC50 [9]: 33.2 µM (active)
- AC50 [10]: 49.7 µM (active)
- AC50 [11]: 10.8 µM (active)
- IC50 [12]: 3.13 µM (active)
- IC50 [13]: > 20 µM (inactive)
- AC50 [14]: 9.52 µM (active)
- CC50 [15]: 14.9 µM (active)
- AC50 [16]: 7.82 µM (active)
- CC50 [17]: > 40 µM (active)
- EC50 [18]: 14.3 µM (active)
- IC50 [19]: 2.12 µM (active)
- EC50 [20]: 14.5 µM (active)
- AC50 [21]: 5.34 µM (active)
- AC50 [22]: > 52 µM (inactive)
- IC50 [23]: 26.2 µM (active)

Structure (SMILES): COc1cccc(C(=O)NC(=O)Nc2cc(C)[nH]n2)c1
- IC50 [7]: > 67.5 µM (inactive)
- IC50 [8]: > 67.5 µM (inactive)

Structure (SMILES): CNc1nc2c(-c3ccc(Cl)cc3)nnn2c2ccccc12
- IC50 [24]: 11.1 µM (active)
- IC50 [25]: 3.14 µM (active)

Structure (SMILES): Cc1cccnc1NC(=O)C(C)N1C(=O)c2ccccc2C1=O (stereo not drawn)
- IC50 [7]: > 67.5 µM (inactive)
- IC50 [8]: > 67.5 µM (inactive)

Structure (SMILES): Cc1cc(N2CCN(C(=O)c3ccco3)CC2)n2nc(-c3ccc(F)cc3)cc2n1
- EC50 [2]: 2.87 µM (active)
- EC50 [6]: 10.8 µM (active)

Structure (SMILES): COc1ccc(-c2cc(=O)c3ccccc3o2)cc1 [4'-METHOXYFLAVONE]
- IC50 [7]: > 67.5 µM (inactive)
- IC50 [8]: > 67.5 µM (inactive)

Source: ChEMBL document CHEMBL1201862, “PubChem BioAssay data set” (2004)
